The test system of the assay is MRP1 cells, doxorubicin viability shift, 10 uM compound. Put plainly: doxorubicin EC50 increase in MRP-1 cells, dose response, cell-based, doxorubicin EC50 shift (AID 844). As to conditions: for EC50: measured here: doxorubicin EC50 with compound.

Each structure is given as a SMILES string. The source made the active and inactive calls. The rule behind the calls is not given here.

One may read the EC50 as the concentration needed to bring the measured effect to its halfway point.

Regarding `Cc1noc(/C=C/N(C)C)c1S(=O)(=O)N1CCCC(C(=O)NCc2cccs2)C1` (stereo not drawn), the fold increase in Dox EC50 was 1.32 (inactive) and the EC50 stood at 7.11 µM.

`O=C(Nc1nnc(N2CCCCCC2)s1)c1cc(-c2ccc(Br)cc2)on1`: the fold increase in Dox EC50 is 0.91 (inactive) and the EC50 worked out at 4.91 µM.

For `CCc1nnc(NC(=O)CCC(=O)N2CCN(CCOc3ccc(C)cc3)CC2)s1`, the fold increase in Dox EC50 is 1.24 (inactive) and the EC50 worked out at 6.7 µM.

For the compound `O=C1CC(c2nc3ccccc3[nH]2)CN1c1cccc(C(F)(F)F)c1` (stereo not drawn), the fold increase in Dox EC50 was 1.24 (inactive) and the EC50 stood at 6.7 µM.

With `Cc1cc(Br)ccc1NC(=O)CNC(=O)CN1C(=O)NC2(CCCCCC2)C1=O`, the fold increase in Dox EC50 is 1.34 (inactive) and the EC50 was 7.25 µM.

In the case of `Cc1ccc(S(=O)(=O)Nc2ccc3ncccc3c2)cc1`, the fold increase in Dox EC50 is 1.36 (inactive) and the EC50 came to 7.32 µM.

For `Cc1cc(C(=O)OCC(=O)Nc2ccc(F)c(F)c2)c(C)o1`, the fold increase in Dox EC50 is 1.76 and the EC50 is 9.53 µM.

On to `Cc1ccsc1CNn1cnnc1SCc1ccc(Cl)cc1`, for which the fold increase in Dox EC50 is 0.78 (inactive) and the EC50 amounted to 4.22 µM.

On to `O=C(COc1ccc2oc3c(c2c1)CCCC3)Nc1ccccn1`, for which the fold increase in Dox EC50 is 1.27 (inactive) and the EC50 came out at 6.85 µM.

Turning to `O=C(NCc1ccc(Cl)cc1)C(=O)NCC(c1ccco1)N1CCOCC1` (stereo not drawn), the fold increase in Dox EC50 was 1.25 (inactive) and the EC50 was determined as 6.77 µM.

On to `Cc1cccc2cc(CN(Cc3cccs3)S(=O)(=O)c3ccc4c(c3)OCCO4)c(=O)[nH]c12`, for which the fold increase in Dox EC50 is 1.47 (inactive) and the EC50 stood at 7.94 µM.

As for `N=C(N)SCc1ccccn1`, the fold increase in Dox EC50 is 0.54 (inactive) and the EC50 was 2.9 µM.

For `Cc1c(NC(=O)CSc2ccc(Cl)cc2)cccc1-c1nc2ncccc2o1`, the fold increase in Dox EC50 is 0.99 (inactive) and the EC50 is 5.34 µM.

`CCC(=O)c1ccc(N2CCOCC2)c(F)c1`: the fold increase in Dox EC50 is 1.32 (inactive) and the half-maximal effective concentration (EC50) worked out at 7.12 µM.

With `COc1ccc(N2Cc3cccc(C(=O)NC(C)CCc4ccco4)c3C2=O)cc1` (stereo not drawn), the fold increase in Dox EC50 was 0.37 (inactive) and the EC50 was determined as 2.02 µM.

For the compound `O=C(CCN1C(=O)/C(=C\c2ccccc2)SC1=S)NNC(=O)c1cccnc1`, the fold increase in Dox EC50 is 1.2 (inactive) and the EC50 came to 6.49 µM.

Turning to `CNC(=O)CSc1nnc(COc2ccc(Cl)cc2)n1CCOC`, the fold increase in Dox EC50 is 1.29 (inactive) and the EC50 is 6.95 µM.

For the compound `Cc1noc(/C=C/N(C)C)c1S(=O)(=O)N1CCCC(C(=O)NCc2ccc(F)cc2)C1` (stereo not drawn), the fold increase in Dox EC50 is 1.15 (inactive) and the EC50 came to 6.2 µM.

With `N#Cc1nc(COc2ccc(Br)cc2)oc1N1CCCCCC1`, the fold increase in Dox EC50 is 0.78 (inactive) and the concentration for a half-maximal effect (EC50) amounted to 4.21 µM.

As to `Cc1cc(C)n(-c2ccc(C(=O)Nc3cccc(S(=O)(=O)N(C)C)c3)cc2)n1`, the fold increase in Dox EC50 is 0.73 (inactive) and the EC50 worked out at 3.93 µM.

`Cc1ccc(OCc2nnc(SCC(=O)Nc3cccc4ccccc34)n2-c2ccccc2)cc1`: the fold increase in Dox EC50 is 0.33 (inactive) and the EC50 turned out to be 1.8 µM.

On to `O=C(Cn1c(=O)oc2cc(S(=O)(=O)N3CCCC3)ccc21)NCc1ccccn1`, for which the fold increase in Dox EC50 is 1.15 (inactive) and the half-maximal effective concentration (EC50) was determined as 6.19 µM.

For `CC1(C)O[C@@H]2C[C@H]3[C@@H]4C[C@H](F)C5=CC(=O)CC[C@]5(C)[C@H]4[C@@H](O)C[C@]3(C)[C@]2(C(=O)CO)O1`, the fold increase in Dox EC50 is 0.65 (inactive) and the EC50 came out at 3.52 µM.

Take `CCOc1ccc(C2CC(c3ccc(F)cc3)Nc3nc(N)nn32)cc1` (stereo not drawn): the fold increase in Dox EC50 is 0.55 (inactive) and the EC50 came out at 2.95 µM.

Take `CC(=O)NN1C(=O)/C(=C\c2ccc(C)cc2)SC1=S`: the fold increase in Dox EC50 was 1.47 (inactive) and the EC50 amounted to 7.96 µM.

With `CCC(Oc1ccccc1)C(=O)Nc1nnc(C(F)(F)F)s1` (stereo not drawn), the fold increase in Dox EC50 was 1.69 and the 50% effective concentration (EC50) came to 9.1 µM.

As for `CCCOC(=S)NC(=O)c1sc2ccccc2c1Cl`, the fold increase in Dox EC50 is 1.25 (inactive) and the EC50 turned out to be 6.75 µM.

`Cc1ccc(C(=O)CCC(=O)Nc2ccc(Cl)c(S(=O)(=O)Nc3cccc(Cl)c3)c2)cc1`: the fold increase in Dox EC50 is 1.15 (inactive) and the 50% effective concentration (EC50) came out at 6.21 µM.

As for `CC(C)CNC(=O)c1cccc(NC(=O)Cc2ccc(Br)cc2)c1`, the fold increase in Dox EC50 was 0.92 (inactive) and the EC50 worked out at 4.98 µM.

For the compound `CCCCCCC1CC(CSc2ncn[nH]2)OC1=O` (stereo not drawn), the fold increase in Dox EC50 is 1.14 (inactive) and the EC50 is 6.14 µM.

On to `Cc1cc(/C=C2\NC(=O)N(Cc3ccc(Cl)cc3)C2=O)c(C)n1C`, for which the fold increase in Dox EC50 was 1.1 (inactive) and the EC50 worked out at 5.93 µM.

Turning to `CCSC(C)CC1C/C(=N/O)c2c(CC)noc2C1` (stereo not drawn), the fold increase in Dox EC50 is 1.27 (inactive) and the EC50 was found to be 6.85 µM.

On to `COc1ccccc1NS(=O)(=O)c1cc(NC(=O)/C=C/c2cccs2)ccc1N1CCOCC1`, for which the fold increase in Dox EC50 was 0.81 (inactive) and the EC50 came out at 4.36 µM.

On to `O=C1C=C(O)CC(c2ccc(Cl)cc2)C1` (stereo not drawn), for which the fold increase in Dox EC50 was 1.04 (inactive) and the 50% effective concentration (EC50) was 5.6 µM.

`COc1ccccc1C1CC(c2ccc(Cl)cc2Cl)Nc2nc(N)nn21` (stereo not drawn): the fold increase in Dox EC50 is 0.95 (inactive) and the concentration giving a half-maximal response (EC50) was found to be 5.11 µM.

Take `Cc1cc(C)cc(NC(=O)c2oc3ccccc3c2COc2ccccc2)c1`: the fold increase in Dox EC50 is 0.88 (inactive) and the EC50 was determined as 4.78 µM.

`CCCOc1ccc(C(=O)Nc2ccc(N3CCN(C(C)=O)CC3)cc2)cc1`: the fold increase in Dox EC50 was 1.06 (inactive) and the EC50 was found to be 5.75 µM.

For `COC(=O)CC1SC(=O)NC1=O` (stereo not drawn), the fold increase in Dox EC50 was 0.9 (inactive) and the concentration for a half-maximal effect (EC50) turned out to be 4.84 µM.

Consider `CCn1c(CNC(=O)COc2ccc(C(C)C)cc2)nnc1SCC(=O)Nc1ccccc1C(C)C`, for which the fold increase in Dox EC50 is 1.04 (inactive) and the EC50 was determined as 5.63 µM.

As to `COc1ccccc1CNC(=O)Cn1cc2c(n1)CCCC2`, the fold increase in Dox EC50 is 1.66 and the EC50 was determined as 8.94 µM.

For the compound `CCc1nnc(NC(=O)C2CCCN2S(=O)(=O)c2ccc(F)cc2)s1` (stereo not drawn), the fold increase in Dox EC50 is 1.03 (inactive) and the EC50 worked out at 5.54 µM.

Take `COc1ccc(NC(=O)c2oc3ccccc3c2NC(=O)c2ccc3c(c2)OCO3)cc1`: the fold increase in Dox EC50 was 0.44 (inactive) and the EC50 worked out at 2.4 µM.

Consider `O=C1NC(=Nc2ccccc2)SC1Cc1cccc(Cl)c1Cl` (stereo not drawn), for which the fold increase in Dox EC50 is 1.21 (inactive) and the EC50 is 6.54 µM.

For `FC(F)(F)c1cccc(CNc2ncccc2-c2nc3cc(Cl)ccc3o2)c1`, the fold increase in Dox EC50 was 0.93 (inactive) and the EC50 amounted to 5.03 µM.

With `O=C(NCCc1ccccc1)C(=O)c1c(-c2ccccc2)cc2ccccn12`, the fold increase in Dox EC50 is 1.08 (inactive) and the EC50 amounted to 5.84 µM.

For `Cc1cccc(NC(=O)CC2SC(=O)N(c3ccccc3)C2=O)c1` (stereo not drawn), the fold increase in Dox EC50 was 0.95 (inactive) and the EC50 was determined as 5.15 µM.

In the case of `N#Cc1nc(COc2ccccc2)oc1N1CCCC1`, the fold increase in Dox EC50 was 0.77 (inactive) and the EC50 is 4.13 µM.

As for `CC(C)OC(=O)CSc1nnc2n1C(C)(C)Cc1ccccc1-2`, the fold increase in Dox EC50 is 0.82 (inactive) and the EC50 came to 4.42 µM.

For `O=C1NC(=Nc2ccc(Cl)cc2)SC1Cc1cc(Cl)ccc1Cl` (stereo not drawn), the fold increase in Dox EC50 is 1.09 (inactive) and the EC50 is 5.86 µM.

In the case of `CC(=O)Nc1nc(C)c(Oc2ccc(Cl)cc2Cl)c(=O)[nH]1`, the fold increase in Dox EC50 was 0.74 (inactive) and the EC50 came to 4.01 µM.

In the case of `Nc1nc2n(n1)C(c1cccs1)CC(c1ccc(Br)cc1)N2` (stereo not drawn), the fold increase in Dox EC50 is 0.91 (inactive) and the EC50 turned out to be 4.93 µM.

In the case of `COc1ccc(C(=O)Nc2ccc(S(=O)(=O)Nc3nccnc3OC)cc2)cc1`, the fold increase in Dox EC50 is 1.12 (inactive) and the EC50 was 6.04 µM.

Consider `CNC(=S)Nc1ccc(C)cc1`, for which the fold increase in Dox EC50 is 0.67 (inactive) and the 50% effective concentration (EC50) was determined as 3.64 µM.

`COc1ccc(OCc2nc3ccc(S(=O)(=O)Nc4ccccc4Cl)cc3[nH]2)cc1`: the fold increase in Dox EC50 was 0.96 (inactive) and the EC50 was 5.16 µM.

For the compound `N/C(Cc1cccs1)=N\OC(=O)COc1ccc(Br)cc1`, the fold increase in Dox EC50 was 1.01 (inactive) and the EC50 worked out at 5.44 µM.

As to `O=C1CC(N2CCCN(C3CC(=O)N(c4ccc(F)cc4)C3=O)CC2)C(=O)N1c1ccc(F)cc1` (stereo not drawn), the fold increase in Dox EC50 was 1.17 (inactive) and the half-maximal effective concentration (EC50) amounted to 6.34 µM.

With `COc1ccccc1NC(=O)CSC(N)=O`, the fold increase in Dox EC50 is 0.81 (inactive) and the concentration for a half-maximal effect (EC50) was 4.4 µM.

As to `Cc1cccc(Nc2nnc(SCC(=O)Nc3cccnc3Cl)s2)c1`, the fold increase in Dox EC50 is 0.61 (inactive) and the concentration for a half-maximal effect (EC50) came to 3.3 µM.

On to `Cc1ccc(-c2cc(-c3ccccc3)no2)c(O)c1`, for which the fold increase in Dox EC50 is 0.59 (inactive) and the EC50 is 3.2 µM.

As to `CC(C)CNC(=O)c1c(N)n(/N=C/c2ccccn2)c2nc3ccccc3nc12`, the fold increase in Dox EC50 is 0.94 (inactive) and the EC50 came to 5.08 µM.

As to `CCCCc1nnc(NC(=O)CSc2nc(=O)cc(N)n2-c2cccc(C)c2)s1`, the fold increase in Dox EC50 was 1.31 (inactive) and the EC50 is 7.08 µM.

As to `O=C(O)CSC1c2ccccc2C(=O)N1Cc1ccccc1` (stereo not drawn), the fold increase in Dox EC50 is 0.82 (inactive) and the EC50 is 4.42 µM.

Consider `CC(Oc1ccc(Cl)cc1Cl)C(=O)NC1CCSC1=O` (stereo not drawn), for which the fold increase in Dox EC50 is 1.98 and the EC50 amounted to 10.7 µM.

Turning to `CC(C)Cc1nnc(NC(=O)CSc2ncn[nH]2)s1`, the fold increase in Dox EC50 was 0.9 (inactive) and the half-maximal effective concentration (EC50) worked out at 4.87 µM.

The values are drawn from PubChem BioAssay AID844 (SRMLSC, 2007).
